Assays:
[1] = system: DSS-induced colitis model; test: DSS-induced colitis model, body weight; assay type: in vivo; conditions: female wild type FVC mice, 3% DSS day 0 to day 5, then 1 mg/kg IP daily in DMSO vs DMSO alone
Description: Mice were treated with 3% DSS from day 0 to day 5 then changed to drinking water and injected IP with either MI6C (1 mg/kg) dissolved in DMSO (n=6) or DMSO alone (n=5) daily.
The ability of MI6 to ameliorate inflammation in the DSS-induced colitis model was evaluated as follows. 8 weeks old female wild type FVC mice were treated with 3% DSS (Sodium salt, MW 40K-50K, from Affymetrix) from day 0 to day 5. The mice were then changed to drinking water. Mice were injected intraperitoneally (IP) with either MI6 (1 mg/kg) dissolved in DMSO (n=6) or DMSO alone (n=5) daily. Animals were weighed daily.

ALPK1 = ALPK1 (Homo sapiens, UniProt Q96QP1); test: Screening of small molecule libraries for inhibitory activity against ALPK1 (binding, kinase and cell-based cytokine secretion assays); assay type: biochemical; conditions: performance in the binding and kinase assays and in at least two cell-based assays
ALPK1, sequence (Q96QP1 whole entry): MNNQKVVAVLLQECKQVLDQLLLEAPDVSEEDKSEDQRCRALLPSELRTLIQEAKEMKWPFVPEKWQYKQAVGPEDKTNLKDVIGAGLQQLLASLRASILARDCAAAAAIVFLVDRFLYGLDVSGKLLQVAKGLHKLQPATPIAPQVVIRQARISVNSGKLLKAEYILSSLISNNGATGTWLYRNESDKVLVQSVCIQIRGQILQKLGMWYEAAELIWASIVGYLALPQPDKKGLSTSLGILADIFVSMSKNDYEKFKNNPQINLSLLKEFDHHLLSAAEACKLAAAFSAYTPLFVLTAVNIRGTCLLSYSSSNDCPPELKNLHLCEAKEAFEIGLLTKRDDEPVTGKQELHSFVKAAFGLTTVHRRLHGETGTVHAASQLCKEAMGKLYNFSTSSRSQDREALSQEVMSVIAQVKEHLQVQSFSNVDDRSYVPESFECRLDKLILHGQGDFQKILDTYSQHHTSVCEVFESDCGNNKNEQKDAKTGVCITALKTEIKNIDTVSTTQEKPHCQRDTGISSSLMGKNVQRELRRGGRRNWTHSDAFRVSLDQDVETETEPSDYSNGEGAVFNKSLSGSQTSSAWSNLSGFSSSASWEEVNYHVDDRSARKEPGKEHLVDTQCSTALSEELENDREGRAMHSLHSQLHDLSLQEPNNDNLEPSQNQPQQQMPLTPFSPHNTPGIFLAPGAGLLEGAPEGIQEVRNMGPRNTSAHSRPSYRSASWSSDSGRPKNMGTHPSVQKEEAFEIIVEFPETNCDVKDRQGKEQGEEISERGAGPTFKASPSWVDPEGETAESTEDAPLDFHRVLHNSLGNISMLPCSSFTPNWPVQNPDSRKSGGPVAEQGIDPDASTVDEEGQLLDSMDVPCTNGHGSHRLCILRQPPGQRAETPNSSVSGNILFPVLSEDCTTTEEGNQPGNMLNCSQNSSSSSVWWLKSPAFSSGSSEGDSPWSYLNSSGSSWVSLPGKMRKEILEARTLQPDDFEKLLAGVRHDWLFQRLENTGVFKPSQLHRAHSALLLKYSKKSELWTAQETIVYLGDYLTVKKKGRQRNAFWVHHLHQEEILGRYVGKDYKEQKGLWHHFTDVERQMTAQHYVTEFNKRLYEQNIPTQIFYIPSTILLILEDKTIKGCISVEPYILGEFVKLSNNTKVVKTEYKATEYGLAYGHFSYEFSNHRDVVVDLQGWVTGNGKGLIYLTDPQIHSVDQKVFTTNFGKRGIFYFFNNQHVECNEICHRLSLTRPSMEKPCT
Description: An ALPK1 inhibitor was identified by screening libraries of small molecules for inhibitory activity against ALPK1. Various assays were used to screen the libraries including binding assays, kinases assays, and cell-based assays for cytokine secretion.

inhibitory activity against ALPK1 (ALPK1): identified as an ALPK1 inhibitor
SMILES: CCCCCCCCCCCCCCCC[n+]1ccn(Cc2ccccc2)c1C [MI6, 1-benzyl-3-hexadecyl-2-methyl-1H-imidazol-3-ium]
weight gain (change in weight relative to day 0) / recovery [1]: improved weight gain
weight gain (change in weight relative to day 0) / recovery ([1]; listed as MI6C): improves recovery
